{"source": "patent US6509377B1", "about": "“Use of a 2-hydroxy-4-trifluoromethylbenzoic acid derivatives as inhibitors of the activation of the nuclear transcription factor NF-κB” (J. Uriach & Cia, S.A., priority 1999, dated 2003)", "key": {"β-actin": {"tested_on": "β-actin", "experiment": "Expression of β-actin mRNA in HUVEC (RT-PCR, constitutive control gene)", "type": "cell-based, human", "settings": "4 mM", "description": "Primers used for the detection of VCAM-1 mRNA by RT-PCR were designed from the human gene sequence (EMBUGenBank AC: M30257), using the Wisconsin Package Version 9.1, Genetics Computer Group (GCG), Madison, Wis. Their sequences were 5′-TGTCACTGTMGCTGCMG-3′ and 5′-TTCCAGCCTGGTTAATTC-3′, corresponding to nucleotides 1090-1108 and 1589-1572 (L. Osbom et al., Cell 1989, 59(6), 1203-1211). Total RNA was extracted from cultured cells using the guanidium isothiocyanate method (P. Chomczynski and N. Sacchi, Anal Biochem. 1987, 162(1), 156-159). cDNA first strand was synthesized from total RNA by reverse transcription reaction. […] The relative amounts of each amplified cDNA were determined by measuring the density of the bands stained with ethidium bromide using the Gel Doc documentation system and the Molecular Analyst software from Bio-Rad Laboratories, Hercules, Calif. […]\nSpecifically, the effect of Triflusal (4 mM) and HTB (4 mM) on the regulation of the expression of VCAM-1 mRNA induced by TNF-α (100 U/ml) in HUVEC was studied. […] The PCR products were separated by electrophoresis in a 1.8% agarose gel and were later quantified. The molecular weight of the amplification products was determined from the electrophoretic migration of DNA size standards."}, "[1]": {"tested_on": "cocultures of rat neurons and astrocytes", "experiment": "Neuronal cell death in cocultures of neurons and astrocytes induced by oxygen-glucose deprivation (OGD)", "type": "cell-based", "settings": "4 h OGD, 24-hour recovery; triflusal 10 and 30 μg/ml; HTB 20 and 100 μg/ml", "procedure": "To carry out this study, an in vitro model of neuronal ischemia based on cocultures of neurons and glial cells was used. Primary cultures of type 1 astrocytes were prepared from 1-day old Wistar rats. Astrocytes were plated onto 60 mm, poly-D-lysine-coated plates. These cells were allowed to grow until they were confluent (about 11 days) and then rat primary neurons were plated onto them and were allowed to grow for 10 days. In addition, separate cultures of each one of the two types of cells were prepared.\nHalf of the cultures were exposed for four hours to oxygenlucose deprivation (OGD), followed by a 24-hour recovery period. Both the cells exposed to OGD and control cells, were treated at the start of OGD with 0, 10 and 30 μg/ml triflusal in a series of experiments and with 0, 20 and 100 μg/ml HTB in another series. After the 24-hour recovery period, the release of lactate dehydrogenase (LDH) into the medium was determined as a measure of cellular death, as well as the degree of apoptosis in the cultures (using the TUNEL assay) and total neuron and astrocyte counts present in the coculture (using Hoescht staining)."}}}
{"smiles": "O=C(O)c1ccc(C(F)(F)F)cc1O", "note": "[HTB, 2-hydroxy-4-trifluoromethylbenzoic acid]", "values": [{"measurement": "effect on the expression of β-actin mRNA", "setting": "β-actin", "result": "absence of effect"}, {"measurement": "increase in LDH release induced by OGD", "setting": "[1]", "result": "completely inhibited"}, {"measurement": "increase in number of apoptotic neurons induced by OGD (TUNEL)", "setting": "[1]", "result": "completely inhibited"}]}
{"smiles": "CC(=O)Oc1cc(C(F)(F)F)ccc1C(=O)O", "note": "[triflusal, 2-Acetyloxy-4-trifluoromethylbenzoic acid, reference compound]", "values": [{"measurement": "effect on the expression of β-actin mRNA", "setting": "β-actin", "result": "absence of effect"}, {"measurement": "increase in LDH release induced by OGD", "setting": "[1]", "result": "completely inhibited"}, {"measurement": "increase in number of apoptotic neurons induced by OGD (TUNEL)", "setting": "[1]", "result": "completely inhibited"}]}
